Source: ChEMBL document CHEMBL5465560, “Selectivity Literature for EUbOPEN Chemogenomic Library” (2024)

Assays:
[1] = molecular target: T1, Ephrin type-A receptor 8 (Homo sapiens) (UniProt P29322); experiment: Selectivity interaction (Upstate Kinase Profiler service (Millipore)) EUB0000056c EPHA8; details: at 1 µM
T1 sequence (whole entry): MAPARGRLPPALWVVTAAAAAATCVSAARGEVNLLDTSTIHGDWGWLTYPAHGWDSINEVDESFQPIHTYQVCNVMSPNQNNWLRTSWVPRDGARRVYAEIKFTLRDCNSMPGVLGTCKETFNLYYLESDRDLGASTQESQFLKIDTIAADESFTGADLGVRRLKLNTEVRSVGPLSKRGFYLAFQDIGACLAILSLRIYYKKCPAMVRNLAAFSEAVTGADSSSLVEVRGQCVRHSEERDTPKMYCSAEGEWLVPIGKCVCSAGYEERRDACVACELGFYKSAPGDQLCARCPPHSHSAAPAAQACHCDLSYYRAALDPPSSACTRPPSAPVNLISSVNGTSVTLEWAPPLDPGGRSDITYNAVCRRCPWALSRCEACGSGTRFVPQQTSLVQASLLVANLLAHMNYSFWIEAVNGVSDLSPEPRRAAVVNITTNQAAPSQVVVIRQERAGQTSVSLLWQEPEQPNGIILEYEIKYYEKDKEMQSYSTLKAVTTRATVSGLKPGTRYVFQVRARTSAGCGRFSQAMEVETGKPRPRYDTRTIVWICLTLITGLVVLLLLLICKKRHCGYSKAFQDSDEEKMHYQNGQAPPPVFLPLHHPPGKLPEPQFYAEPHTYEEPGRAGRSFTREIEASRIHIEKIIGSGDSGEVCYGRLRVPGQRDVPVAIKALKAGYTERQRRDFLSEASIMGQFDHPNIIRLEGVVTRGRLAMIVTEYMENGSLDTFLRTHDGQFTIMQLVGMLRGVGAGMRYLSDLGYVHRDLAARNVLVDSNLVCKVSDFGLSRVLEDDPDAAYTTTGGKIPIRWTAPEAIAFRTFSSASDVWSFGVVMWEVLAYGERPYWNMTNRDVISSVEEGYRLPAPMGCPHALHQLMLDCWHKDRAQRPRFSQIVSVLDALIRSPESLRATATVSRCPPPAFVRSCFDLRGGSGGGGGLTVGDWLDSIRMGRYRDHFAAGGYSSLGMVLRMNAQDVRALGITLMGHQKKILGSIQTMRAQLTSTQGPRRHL

[2] = molecular target: Serine/threonine-protein kinase MARK2 (Homo sapiens) (UniProt Q7KZI7); experiment: Selectivity interaction (ActivX KiNativ screen (kinase selectivity in THP-1 cell lysates)) EUB0000639a MARK2; format: subcellular; details: lysate, at 0.2 µM
Chain of Serine/threonine-protein kinase MARK2 (Homo sapiens) (Q7KZI7 whole entry): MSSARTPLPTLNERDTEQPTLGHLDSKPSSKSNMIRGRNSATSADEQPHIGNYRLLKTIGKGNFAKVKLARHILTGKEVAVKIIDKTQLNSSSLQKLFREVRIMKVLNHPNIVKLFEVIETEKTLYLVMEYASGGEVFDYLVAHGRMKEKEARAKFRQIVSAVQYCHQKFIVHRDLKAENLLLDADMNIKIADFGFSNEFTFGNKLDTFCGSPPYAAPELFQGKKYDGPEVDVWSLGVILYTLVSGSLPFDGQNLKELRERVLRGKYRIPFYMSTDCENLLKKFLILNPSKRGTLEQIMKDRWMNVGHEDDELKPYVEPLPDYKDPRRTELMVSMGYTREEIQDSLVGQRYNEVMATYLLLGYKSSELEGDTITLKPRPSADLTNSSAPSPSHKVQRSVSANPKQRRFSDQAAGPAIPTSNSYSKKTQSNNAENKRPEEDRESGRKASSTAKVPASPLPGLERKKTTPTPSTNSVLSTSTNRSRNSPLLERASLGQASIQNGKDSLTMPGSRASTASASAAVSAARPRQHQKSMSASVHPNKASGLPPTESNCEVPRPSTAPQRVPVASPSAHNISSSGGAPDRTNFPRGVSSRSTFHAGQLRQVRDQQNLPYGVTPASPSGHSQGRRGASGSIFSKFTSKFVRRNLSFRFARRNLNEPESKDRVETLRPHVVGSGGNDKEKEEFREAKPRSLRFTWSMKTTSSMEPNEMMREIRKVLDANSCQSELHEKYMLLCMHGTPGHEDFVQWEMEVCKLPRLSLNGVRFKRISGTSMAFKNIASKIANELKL

[3] = molecular target: T2, Serine/threonine-protein kinase ULK2 (Homo sapiens) (UniProt Q8IYT8); experiment: Selectivity interaction (KinomeScan (DiscoverX)) EUB0000695a ULK2; details: at 100 nM
T2 sequence (whole entry): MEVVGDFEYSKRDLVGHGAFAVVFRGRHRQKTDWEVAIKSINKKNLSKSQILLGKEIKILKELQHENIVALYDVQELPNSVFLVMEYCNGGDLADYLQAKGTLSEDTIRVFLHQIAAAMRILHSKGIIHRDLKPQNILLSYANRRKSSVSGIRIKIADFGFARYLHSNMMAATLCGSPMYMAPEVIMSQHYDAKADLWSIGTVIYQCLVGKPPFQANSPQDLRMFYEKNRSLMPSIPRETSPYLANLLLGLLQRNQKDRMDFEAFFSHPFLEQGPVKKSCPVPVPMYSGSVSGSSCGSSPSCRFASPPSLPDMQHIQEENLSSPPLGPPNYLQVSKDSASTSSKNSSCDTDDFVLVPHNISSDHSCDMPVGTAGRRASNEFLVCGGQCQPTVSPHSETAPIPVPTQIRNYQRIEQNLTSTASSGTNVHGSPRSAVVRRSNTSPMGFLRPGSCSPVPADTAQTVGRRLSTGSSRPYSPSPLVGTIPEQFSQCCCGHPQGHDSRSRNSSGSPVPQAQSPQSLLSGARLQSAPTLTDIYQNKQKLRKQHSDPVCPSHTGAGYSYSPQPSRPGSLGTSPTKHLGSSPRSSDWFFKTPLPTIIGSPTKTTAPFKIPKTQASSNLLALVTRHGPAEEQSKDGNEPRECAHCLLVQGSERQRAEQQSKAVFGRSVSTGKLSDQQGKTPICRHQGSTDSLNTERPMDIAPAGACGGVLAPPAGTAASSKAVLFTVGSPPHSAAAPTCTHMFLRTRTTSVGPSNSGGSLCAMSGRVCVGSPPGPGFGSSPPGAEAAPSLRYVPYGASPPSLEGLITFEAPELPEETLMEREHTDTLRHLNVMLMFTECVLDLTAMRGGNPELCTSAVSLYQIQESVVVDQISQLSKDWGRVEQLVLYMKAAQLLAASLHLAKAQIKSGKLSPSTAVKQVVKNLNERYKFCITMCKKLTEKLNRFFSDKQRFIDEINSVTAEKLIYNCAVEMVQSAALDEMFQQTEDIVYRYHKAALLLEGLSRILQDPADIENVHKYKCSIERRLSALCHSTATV

[4] = Selectivity interaction (KinomeScan (DiscoverX)) EUB0000618a CDPK1; details: at 10 µM

Cc1ccc(-c2ccc3c(ccc4sc5c(c43)NC[C@@H](C)NC5=O)n2)cn1
% of inhibition [1]: 1%

CC[C@@H]1[C@H](F)C(=O)N[C@@H]1COc1nccc2cc(C(N)=O)c(OC)cc12 [ZIMLOVISERTIB]
% of inhibition [2]: 4.2%

Cc1cc(F)c(C(=O)Nc2cccc(-c3nncn3C(C)C)n2)cc1-n1cnc(C2CC2)c1
% of control [3]: 91%

O[C@H]1CC[C@H](Nc2ncc3nc(Nc4c(F)cc(F)cc4F)n([C@H]4CCOC4)c3n2)CC1
% of control [4]: 1.5%
